One data set relates to rat brain. As to the kind of experiment: Measurement of ESR-CT image of rat brain after intraperitoneal administration. It counts as in vivo, Wister male rats. The following applies: 6 ml of 150 mM saline solution intraperitoneally, ESR-CT 20 minutes after administration. The method, then:
6 ml of 150 mM physiological saline solution of 1-acetoxy-3-carbamoyl-2,2,5,5-tetramethylpyrrolidine was intraperitoneally administered to Wister male rats (200 g, age: nine weeks) anesthesized with pentobarbital. The head of the rat was secured so that the part of the head 9 mm ahead of the external auditory meatus came to the center of the resonator. ESR-CT was measured 20 minutes after administration. The measuring conditions of ESR-CT were as follows.
(Measurement Conditions of ESR-CT)
Instrument: 700 MHz band electron spin resonance apparatus
Microwave frequency: 720 MHz
Central magnetic field: 25 mT
Magnetic field sweep width: 15 mT
Magnetic field modulation width: 0.2 mT
Magnetic field modulation frequency: 100 kHz
Magnetic field gradient: 1 mT/cm
Magnetic field gradient rotational angle: 20°
The measured black-and-white picture image is shown in FIG. 2, and a color picture image is attached as a reference figure. In FIG. 2, A is a rat brain ESR-CT image 1 mm posterior to the bregma, and B is a rat brain ESR-CT image 3 mm posterior to the bregma. FIG. 3 is a drawing describing the part of the brain indicated by the anatomical chart in FIG. 2.

The subject of the next data set is Esterase, Porcine Liver. As to the kind of experiment: Test for measuring enzyme activity: hydrolysis of the sample by esterase, followed by ESR. It counts as in vitro ADME. The following applies: 1 mM sample solution, esterase 0.2-200 U/ml in phosphate buffered saline pH7.4, one minute, oxidised to nitroxide. Here is the method:
Capability of enzyme (esterase) activity determination by ESR using 1-acetoxy-3-carbamoyl-2,2,5,5-tetramethylpyrrolidine was examined. Esterase (3360 U/ml, manufactured by Sigma Co., Esterase, Porcine Liver) was diluted with a phosphate buffered saline solution (pH7.4, 67 mM) to concentrations of 0.2, 2, 20, and 200 U/ml. 100 μl of each diluent was added to 100 μl of a 1 mM sample solution, and allowed to stand for one minute. Specifically, the sample was converted into a hydroxylamine derivative using the esterase. Next, 10 μl of 10 mM sodium periodide phosphate buffered saline solution was added. Specifically, the hydroxylamine derivative produced was converted into a nitroxide derivative which can be measured by ESR. Finally, this solution is suctioned into a flat cell (manufactured by Labotech Co.) to measure ESR spectrum using “JES-REIX” manufactured by JEOL Ltd after one minute.
In addition, it was confirmed that the esterase activity can be measured by using this reaction.

What is called melting point is the temperature of the solid-liquid transition.

As to `CC1(C)CC(C(N)=O)C(C)(C)N1OC(=O)c1ccccc1` (stereo not drawn) [Example 4, 1-Benzoyloxy-3-carbamoyl-2,2,5,5-tetramethylpyrrolidine], the melting point lay in the range of 199 to 201 °C.

`CC(=O)ON1C(C)(C)CC(C(N)=O)C1(C)C` (stereo not drawn) [1-Acetoxy-3-carbamoyl-2,2,5,5-tetramethylpyrrolidine] registered a melting point of 150 to 151 °C. For the same compound, the “transfer to the brain and conversion to nitroxide derivative” value in the data set with rat brain was “hydrolyzed after being transferred to the brain, and oxidized by intracerebral active oxygen and free radicals into a nitroxide derivative”. Besides, the “hydrolysis by esterase (ESR signal strength vs esterase concentration)” value with Esterase, Porcine Liver is “hydrolyzed by esterase in a short time and the reaction is quantitative”.

`CCC(=O)ON1C(C)(C)CC(C(N)=O)C1(C)C` (stereo not drawn) [Example 2, 1-Propionyloxy-3-carbamoyl-2,2,5,5-tetramethylpyrrolidine] registered a melting point of 116 to 117 °C.

Consider `CC(=O)OC1CC(C)(C)N(OC(C)=O)C(C)(C)C1` [Example 5, 1,4-Diacetoxy-2,2,6,6-tetramethylpiperidine], for which the melting point fell in the range of 72 to 73 °C.

Source of the values: US6713492B1, “N-acyloxylated cycloalkyl compounds, composition containing the same and methods of use therefor” (Daiichi Radioisotope Laboratories, Ltd., priority 1998, dated 2004).
